Values joined by “and” are separate entries in the source; they are usually repeats but may differ in a detail not shown here. Equal values may be shown once. Read-outs that look alike come from different tables or passages of the source.
Molecular target: T1, SARS CoV-2 M^pro (Severe acute respiratory syndrome coronavirus 2, UniProt P0DTD1)
T1 construct: The main protease (M^pro) is a part of the polyprotein chain, also named 3C-like protease; SUMO (cleaved yes); His; made in house; host or cells: Escherichia coli BL21(DE3)
Test: biochemical
Type: biochemical
Settings: for inhibition at 80 µM: read-out: Inhibition%(80μM)

SMILES	Inhibition%(80μM)	inhibition at 80 µM [%]	inhibition at 80 µM (80 μM compound, second value column of Table S2) [%]
O=C1O[C@H]2[C@@H]3OC(=O)c4cc(O)c(O)c(O)c4-c4c(O)c(O)c5oc(=O)c6c(c(O)c(O)c7oc(=O)c4c5c76)-c4c(cc(O)c(O)c4O)C(=O)OC[C@H]3OC(O)[C@@H]2OC(=O)c2cc(O)c(O)c(O)c2-c2c1cc(O)c(O)c2O (mixture of isomers) [Punicalagin]	73.51% and 73.40%	75	–
CC(C)=CCC(O)C1=CC(=O)c2c(O)ccc(O)c2C1=O (racemic) [(±)-Shikonin]	95.04% and 93.71%	87.6	–
O=C(/C=C/c1ccc(O)c(O)c1)O[C@@H]1C[C@@](OC(=O)/C=C/c2ccc(O)c(O)c2)(C(=O)O)C[C@@H](O)[C@@H]1O [1,5-Dicaffeoylquinic Acid]	75.61% and 71.24%	74.6	–
CC(=O)O[C@H]1[C@H](OCCc2ccc(O)c(O)c2)O[C@H](CO)[C@@H](OC(=O)/C=C/c2ccc(O)c(O)c2)[C@@H]1O[C@@H]1O[C@@H](C)[C@H](O)[C@@H](O)[C@H]1O [2'-Acetylacteoside]	93.37% and 90.77%	90.6	–
CC1=CC(=O)C=C(C)C1=O [2,6-Dimethylbenzoquinone]	101.34% and 101.15%	102	–
O=c1c(O)c(-c2ccc(O)c(O)c2)oc2cc(O)c(O)c(O)c12 [3,3',4',5,6,7-Hexahydroxyflavone]	99.40% and 98.98% and 98.10%	–	–
O=C(O)Cc1ccc(O)c(O)c1 [3,4-Dihydroxyphenylacetic Acid]	71.59% and 70.57%	72.4	–
OCCc1ccc(O)c(O)c1 [3,4-Dihydroxyphenylethanol]	102.33% and 102.25%	101	–
CC(=O)OC(C)(C)CC(=O)O[C@@H](CC=C(C)C)C1=CC(=O)c2c(O)ccc(O)c2C1=O [3-(Acetyloxy)-3-methylbutanoic acid (1S)-1-(1,4-dihydro-5,8-dihydroxy-1,4-dioxo-2-naphthalenyl)-4-methyl-3-pentenyl ester]	93.12% and 92.58% and 93.44%	–	–
Cc1ccc(O)c(O)c1 [4-Methylcatechol]	102.51% and 102.92%	103	–
Cc1cc(=O)oc2cc(O)c(O)cc12 [4-Methylesculetin]	77.57%	79.1	79.9
COC(=O)[C@@H](Cc1ccc(O)c(O)c1)OC(=O)[C@@H]1c2c(/C=C/C(=O)O[C@H](Cc3ccc(O)c(O)c3)C(=O)O)ccc(O)c2O[C@H]1c1ccc(O)c(O)c1 [9'-Methyl Lithospermate B]	72.67% and 74.36%	73.6	–
CCCCCCCC/C=C\CCCCCCCCC(=O)O [10Z-Nonadecenoic acid]	126.52% and 101.02% and 101.53%	–	–
OC[C@]1(O)COc2cc(O)ccc2-c2cc(O)c(O)cc2C1 [(7S)-3,7,10,11-Tetrahydroxy-7,8-dihydro-6H-dibenzo[b,d]oxocin-7-methanol]	101.15% and 101.14% and 101.45%	–	–
O=C(O[C@@H]1Cc2c(O)cc(O)cc2O[C@@H]1c1cc(O)c(O)c(O)c1)c1cc(O)c(O)c(O)c1 [(-)-Epigallocatechin Gallate]	85.53% and 79.02%	82.6	–
CC(C)=CCC(OC(=O)C=C(C)C)C1=CC(=O)c2c(O)ccc(O)c2C1=O (stereo not drawn) [(β,β-Dimethylacryl)Shikonin]	82.39% and 82.91% and 82.80%	–	–
O=C(O[C@@H]1Cc2c(O)cc(O)cc2O[C@H]1c1cc(O)c(O)c(O)c1)c1cc(O)c(O)c(O)c1 [(−)–gallocatechin gallate, (-)-Gallocatechin Gallate]	102.08% and 101.74%	101	–
O=C(O)c1ccc2c(c1)C(=O)c1ccccc1C2=O [Anthraquinone-2-Carboxylic Acid]	84.57%	85.4	–

SMILES	Inhibition%(80μM)	inhibition at 80 µM [%]	inhibition at 80 µM (80 μM compound, second value column of Table S2) [%]
CCCCC/C=C\C/C=C\C/C=C\C/C=C\CCCC(=O)O [Arachidonic Acid]	76.72% and 73.70%	82.2	–
C[C@@H]1OC(O[C@@H]2[C@@H](O)[C@H](OCCc3ccc(O)c(O)c3)O[C@H](CO[C@@H]3OC[C@@H](O)[C@H](O)[C@H]3O)[C@H]2OC(=O)/C=C/c2ccc(O)c(O)c2)[C@H](O)[C@H](O)[C@H]1O (stereo partly drawn) [Arenarioside]	99.86% and 99.31%	99.1	–
O=C(O)[C@H]1O[C@@H](Oc2cc3oc(-c4ccccc4)cc(=O)c3c(O)c2O)[C@H](O)[C@@H](O)[C@@H]1O [Baicalin]	72.02%	77.5	–
Oc1ccc2c(c1)OC[C@]1(O)Cc3cc(O)c(O)cc3[C@H]21 [Brazilin]	101.06% and 101.28%	101	–
O=C(O)[C@H]1O[C@@H](Oc2cc3oc(-c4ccc(O)cc4)cc(=O)c3c(O)c2O)[C@H](O)[C@@H](O)[C@@H]1O [Breviscapin]	78.06% and 77.78%	66	–
CC(C)c1cc2c(c(O)c1O)[C@@]13CCCC(C)(C)[C@@H]1C[C@@H]2OC3=O [Carnosol]	73.35% and 80.59%	74.5	–
CC1=C(O)C(=O)C=C2C1=CC=C1[C@@]2(C)CC[C@@]2(C)[C@@H]3C[C@](C)(C(=O)O)CC[C@]3(C)CC[C@]12C [Celastrol]	85.83% and 91.32%	89.6	–
COc1ccc2c(c[n+](C)c3c4cc5c(cc4ccc23)OCO5)c1OC [Chelerythrine chloride]	98.66% and 98.31% and 98.46%	–	–
COc1ccc2c(c[n+](C)c3c4cc5c(cc4ccc23)OCO5)c1OC [Chelerythrine]	98.97% and 99.51%	99.4	–
O=C(O[C@@H]1O[C@@H]2COC(=O)c3cc(O)c(O)c(O)c3-c3c(cc(O)c(O)c3O)C(=O)O[C@H]([C@H]1O)[C@@H]2O)c1cc(O)c(O)c(O)c1 [Corilagin]	101.84% and 101.22%	101	–
CC(C)=CCCC1=CC(=O)c2c(O)ccc(O)c2C1=O [Deoxyshikonin]	88.46% and 84.98%	82.3	–
O=C(/C=C/c1ccc(O)c(O)c1)OC[C@H]1O[C@@H](OCCc2ccc(O)c(O)c2)[C@H](O)[C@@H](O)[C@@H]1O [Desrhamnosyl Isoacteoside]	93.35% and 94.40% and 92.55%	–	–
CCCCC/C=C\C/C=C\CCCCCCCCCC(=O)O [Eicosadienoic Acid]	103.14% and 107.18%	105	–
CCCCCCCC/C=C/CCCCCCCC(=O)O [Elaidic Acid]	79.40% and 87.31%	74.9	–
CCCCCCCCCCCC1=C(O)C(=O)C=C(O)C1=O [Embelin]	89.75% and 99.35%	103	–
CCCCCCCC/C=C\CCCCCCCCCCCC(=O)O [Erucic Acid]	99.68% and 100.48%	101	–
C[C@@H]1O[C@@H](OC[C@H]2O[C@@H](OCCc3ccc(O)c(O)c3)[C@H](O)[C@@H](O)[C@@H]2OC(=O)/C=C/c2ccc(O)c(O)c2)[C@H](O)[C@H](O)[C@H]1O [Forsythoside A]	73.60% and 71.69%	77	–
C[C@@H]1O[C@@H](OC[C@H]2O[C@@H](OCCc3ccc(O)c(O)c3)[C@H](O)[C@@H](O)[C@@H]2O)[C@H](O)[C@H](O)[C@H]1O [Forsythoside E]	102.62% and 100.37%	103	–

— PMC10222270, “Natural Product-Based Screening for Lead Compounds Targeting SARS CoV-2 M^pro” (Pharmaceuticals, 2023)
